In one data set the test system is VEGFR-2. As to conditions: read-out: IC50 for VEGFR-2; endothelial cell culture conditions; cited from earlier work.
Data set [1] relates to VEGF-A. The note with it: cited from earlier work. From the text: Therefore, the VEGF-A/VEGFR-2 system is widely considered a main target of the therapeutic treatment for tumor angiogenesis. Ligation of VEGFR-2 triggers strong proangiogenic signals including p38MAPK/ERK, Src/FAK, and Akt/eNOS through VEGFR-2 phosphorylation, which promote angiogenesis and VEGFR-2 internalization.

For another data set, the system named is endothelial cells. Further details: method as in PMID 15013002. As to conditions: cited from earlier work.
Data set [2] relates to HUVECs. The data set can be described thus: FACS binding of FITC-conjugated RLYE to HUVECs. Further details: species or system human. The note with it: FITC-conjugated RLYE 15 nM, n = 5. The procedure:
(§1) Figure 5 RLYE binds to endothelial cells through binding to VEGFR-2 A and B. HUVECs were incubated with FITC-conjugated RLYE (RL, 15 nM) before or after treatment with VEGF-A (VE, 100 ng) for 30 min. Cells were analyzed by flow cytometry (A) and quantified (B). Data are the means ± SD (n = 5). **P < 0.01 versus RLYE alone. C and D. HUVEC lysates were incubated with biotinylated RLYE (Bio-RLYE, 0.15 or 1.5 nM), followed by precipitation with streptavidin-agarose beads. The red arrow indicates VEGFR-2 protein bands on a longer exposure film. The precipitates were separated by SDS-PAGE. VEGFR-2 or VEGFR-1 expression was assessed by Western blot analysis. E. HUVECs were treated with or without VEGF-A (10 ng/ml) for 30 min, followed by incubation with FITC-conjugated RLYE (100 ng/ml, green). Cells were incubated with a TRITC-conjugated CD31 antibody (1:100, red) or DAPI (blue). Confocal microscopy was performed for analyzing binding of RLYE on HUVECs. Scale bar, 10 μm.
HUVECs cultured for 24 h after plating in 60 mm-culture dishes. Cells from subconfluent cultures were gently detached from wells with PBS containing 5 mM EDTA, washed three times with PBS, and resuspended in PBS containing 2% FBS/0.1% bovine serum albumin. Thereafter, they were incubated with FITC-conjugated RLYE (15 nM) before or after treatment with VEGF (100 ng/ml) for 30 min on ice, fixed in 2% paraformaldehyde, and analyzed by flow cytometry in a fluorescence-activated cell sorter (FACSCalibur, Becton Dickinson, Franklin Lakes, NJ).
On the technique in general: A flow cytometer gives signals particle by particle.

Data set [3] deals with HUVECs. The experiment in a line: confocal microscopy of FITC-RLYE binding to HUVECs. Also noted: species or system human. The procedure: as §1, with “Confocal microscopy was performed for analyzing binding of RLYE on HUVECs. Scale bar, 10 μm.” left out
For immunocytochemistry, HUVECs were grown to confluence on glass coverslips coated with 2% gelatin and treated with or without VEGF-A (10 ng/ml) for 30 min, followed by incubation with FITC-RLYE (100 ng/ml). […] Images were photographed and analyzed using a confocal fluorescence microscope. Nuclear staining was performed with 4’, 6-diamidino-2-phenylindole (DAPI, 1 ng/ml), and apoptotic cells were detected using a terminal deoxynucleotidyl transferase dUTP nick end labeling (TUNEL) kit (Roche, Korea).

Data set [4] relates to HUVECs. The experiment in a line: MTT cell viability, HUVECs. It counts as cell-based, human. The note with it: 24 h. The procedure:
(§2) Mouse melanoma B16F1 and B16F10 cells and human HCT116 colon cancer cells were obtained from American Type Culture Collection (Manassas, VA) and cultured in RPMI medium supplemented with 10% FBS, 1 mM sodium pyruvate, 10 mM 4-(2-hydroxyethyl)-1-piperazineethanesulfonic acid, and 100 U/ml penicillin-streptomycin in a humidified atmosphere of 5% CO2 at 37°C. Human umbilical vein endothelial cells (HUVECs) were maintained and cultured in M199 as described previously, and only passages 2-7 were used for all experiments. Human multiple myeloma IM-9 and RPMI 8226 cells were obtained from Korean Cell Line Bank (Seoul, Korea). The cells were cultured in RPMI-1640 medium in a humidified CO2 incubator. Cell viability or cytotoxicity was evaluated by 3-[4,5-cimethylthiazol-2-yl]-2,5-diphenyl tetrazolium bromide (MTT, Sigma-Aldrich) assay.
(§3) www.impactjournals.com/oncotarget/ Oncotarget, Supplementary Materials 2016
(§4) B. cells were treated the indicated concentration of RLYE for 24 h. Cell viability was determined by MTT assay. […]

Another data set relates to HCT116 cells. The data set can be described thus: MTT cell viability, HCT116 cells. It counts as cell-based, human. As to conditions: up to 30 nM, 24 h. The procedure:
as §2, §3, §4

The next data set in a line: half-life in blood. It counts as in vivo. The note with it: unpublished data.
Data set [5] in a line: half-life in culture medium. The format is in vitro ADME. As to conditions: M199 culture medium with 10% heat-inactivated FBS; unpublished data.
The subject of data set [6] is VEGF-A. As to conditions: read-out: IC50 for VEGF-A; endothelial cell culture conditions; cited from earlier work.
The test system of another data set is HCT116 tumors. The experiment in a line: HCT116 human colon cancer xenograft in nude mice. The format is in vivo, mouse. As to conditions: RLYE 0.5 mg/kg/day i.p., CPT-11 17 mg/kg every 5th day, alone or combined, n = 7 per group. Here is the method: Figure 7 RLYE inhibits tumor growth and metastasis by suppressing tumor angiogenesis A. Representative tumors isolated from 29-days-old B16F1 tumor-bearing C57BL/6J mice injected i.p. with saline or RLYE (1 mg/kg) every day. B. Tumor weight on day 29 after injection of B16F1 cells (n = 10 mice per group). C. […] D. Representative images for metastatic nodules of the lungs isolated from C57BL/6J mice, which were injected i.v. with B16F10 melanoma cells and treated with saline or RLYE for 3 weeks. E. Quantification of the number of lung metastatic nodules. […] Representative tumors from 30-day-old HCT116 tumor-bearing mice. (G) Tumor burden was measured every 3 days (n = 8 mice per group). (H) Functional vascularization was quantified by measuring hemoglobin concentration in HCT116 tumor tissues (n = 5). […]
Figure 8 RLYE inhibits vascular leakage and enhances tumor chemosensitivity A. Endothelial cell permeability was determined by diffusion of [^14C]-sucrose through HUVEC monolayers treated with 20 ng/ml of VEGF alone or in combination with RLYE (n = 3). B. Phosphorylation of VE-cadherin was determined in cell lysates of HUVECs treated with 20 ng/ml of VEGF alone or in combination with RLYE. […] Immunostaining of VE-cadherin in endothelial monolayer was determined by confocal microscopy. […] Tumor vascular leakage was determined by the Evans blue method (E and F) or FITC-dextran image assay (G and H). […]
Background: Xenograft models place foreign cells or tissue in a host animal.

The target of data set [7] is human recombinant VEGF receptor-2 (rhVEGFR-2) (human) (UniProt P35968). The experiment in a line: SPR; rhVEGFR-2 immobilised on an activated CM5 chip; RLYE at different concentrations flowed in HBS-EP (10 mM Hepes, 150 mM NaCl, 3 mM EDTA, 0.005% Tween-20) at 25 μl/min, 120 sec injection; Kd from a steady state binding model. A general note: In SPR one partner is held on a chip, and binding of the other changes the refractive index at the surface.

Where a SMILES comes first, the peptide text is derived from it. Where no end group is shown, it is not given here. Where only a bound is given, the exact number is not on record here.

What is called IC50 is the concentration that gives 50% inhibition. One may read the half-life as the time in which the quantity being followed falls by half. The low end stands for rapid decline, the high end for slow decline. By Kd is commonly meant the free concentration of one partner at which half of the binding sites on the other are occupied at equilibrium, for simple one-to-one binding.

Sequence of human recombinant VEGF receptor-2 (rhVEGFR-2) (human) (P35968 20-764): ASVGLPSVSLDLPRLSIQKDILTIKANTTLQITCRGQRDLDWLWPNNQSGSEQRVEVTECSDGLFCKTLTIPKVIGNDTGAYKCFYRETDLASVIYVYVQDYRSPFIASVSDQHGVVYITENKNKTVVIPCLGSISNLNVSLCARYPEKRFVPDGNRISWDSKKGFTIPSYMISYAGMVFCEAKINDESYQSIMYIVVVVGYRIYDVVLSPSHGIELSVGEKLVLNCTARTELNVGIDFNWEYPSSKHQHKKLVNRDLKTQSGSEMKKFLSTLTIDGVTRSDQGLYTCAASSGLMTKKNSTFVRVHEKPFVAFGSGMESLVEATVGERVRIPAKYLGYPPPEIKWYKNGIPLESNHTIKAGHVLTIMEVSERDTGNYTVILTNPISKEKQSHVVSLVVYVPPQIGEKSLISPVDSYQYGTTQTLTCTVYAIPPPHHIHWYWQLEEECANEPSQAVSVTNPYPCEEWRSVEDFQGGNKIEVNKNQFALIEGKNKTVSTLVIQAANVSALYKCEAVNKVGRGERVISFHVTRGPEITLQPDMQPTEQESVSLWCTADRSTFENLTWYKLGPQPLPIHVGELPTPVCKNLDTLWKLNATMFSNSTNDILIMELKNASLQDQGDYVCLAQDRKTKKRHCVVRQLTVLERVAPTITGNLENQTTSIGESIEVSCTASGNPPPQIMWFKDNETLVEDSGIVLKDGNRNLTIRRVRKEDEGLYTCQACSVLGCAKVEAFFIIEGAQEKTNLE

Regarding “ramucirumab: fully humanized monoclonal antibody bound to the extracellular domain of VEGFR-2”, the IC50 in the data set with VEGFR-2 was 1 to 2 nM.
For aflibercept: soluble decoy VEGFR-1, in the data set on VEGF-A [1], the “affinity to VEGF-A relative to bevacizumab” value is given as “several hundred-fold greater”.
In the case of “Lys-Leu-Tyr-Asp [KLYD, tetrapeptide derived from the kringle 5 of plasminogen]”, the “inhibitory effect on endothelial cell proliferation” value with endothelial cells was “potent inhibitory effect”.
With “FITC-conjugated RLYE: fluorescein isothiocynate (FITC)-conjugated RLYE, purchased from Peptron (also: FITC conjugated, position not given here)”, the “binding to the surface of control HUVECs” value in the data set on HUVECs [2] (30 min on ice, flow cytometry) is recorded as “bound”. Further, in the data set with HUVECs [2] (VEGF 100 ng/ml after the peptide), the “blocking of binding to HUVECs by post-incubation with VEGF-A” value was “not”. In addition, in the data set on HUVECs [2] (VEGF 100 ng/ml before the peptide), the “binding to HUVECs after pre-incubation with VEGF-A” value is “blocked”. In the data set on HUVECs [3] (FITC-conjugated RLYE 100 ng/ml), the “binding to the surface of HUVECs (confocal)” value is on record as “bound”. The “binding to the surface of HUVECs after pretreatment with VEGF-A (confocal)” value in the data set with HUVECs [3] (VEGF-A 10 ng/ml 30 min, then FITC-conjugated RLYE 100 ng/ml) is reported as “effectively blocked”.
For the molecule `CC(C)C[C@H](NC(=O)[C@@H](N)CCCNC(=N)N)C(=O)N[C@@H](Cc1ccc(O)cc1)C(=O)N[C@@H](CCC(=O)O)C(=O)O` [RLYE, Arg-Leu-Tyr-Glu] (H-RLYE-OH), the “cytotoxicity against HUVECs” value in the data set with HUVECs [4] was “did not induce any cytotoxicity”. Also, the “cytotoxic effect on cultured HCT116 cells” value in the data set with HCT116 cells is “no cytotoxic effect”. Besides, the half-life in blood in the data set “half-life in blood” was determined as 1.2 h. For the same molecule, in [5], the half-life was over 18 h.
As to bevacizumab: anti-VEGF antibody, the half-inhibitory concentration (IC50) with VEGF-A [6] was 0.15 nM.
With `CCc1c2c(nc3ccc(OC(=O)N4CCC(N5CCCCC5)CC4)cc13)-c1cc3c(c(=O)n1C2)COC(=O)[C@]3(O)CC` [CPT-11, irinotecan], the “tumor growth in mice bearing HCT116 colon tumor” value in the data set with HCT116 tumors is “significantly inhibited tumor growth”.
For the molecule RLYE [Arg-Leu-Tyr-Glu tetrapeptide (RLYE)], the Kd in data set [7] turned out to be 9000 nM.

The record behind these values is publication PMC5355302, “Arg-Leu-Tyr-Glu tetrapeptide inhibits tumor progression by suppressing angiogenesis and vascular permeability via VEGF receptor-2 antagonism” (Oncotarget, 2016).
